{"source": "patent US8999957B2", "about": "“Heterocyclic compounds as ERK inhibitors” (Merck Sharp & Dohme Corp., priority 2010, dated 2015)"}
{"target": "fully phosphorylated, mouse aERK2 enzyme (Mus musculus (Mouse), UniProt P63085)", "sequence (P63085 whole entry)": "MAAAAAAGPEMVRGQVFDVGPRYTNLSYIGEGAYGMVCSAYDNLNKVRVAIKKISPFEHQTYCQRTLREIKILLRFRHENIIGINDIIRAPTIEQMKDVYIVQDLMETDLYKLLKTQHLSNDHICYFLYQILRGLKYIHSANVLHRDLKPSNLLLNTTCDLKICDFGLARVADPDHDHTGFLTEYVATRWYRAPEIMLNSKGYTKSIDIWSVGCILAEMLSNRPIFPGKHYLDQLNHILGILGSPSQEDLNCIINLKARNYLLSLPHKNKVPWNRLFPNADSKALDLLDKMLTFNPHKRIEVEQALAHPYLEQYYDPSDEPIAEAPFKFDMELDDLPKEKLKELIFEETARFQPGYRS", "assay": "Active ERK2 (aERK) IMAP-FP assay, condition 2", "type": "biochemical", "conditions": "aERK assay condition 2, 30 uM ATP; read-out: aERK IC50", "method_in_brief": "(§1)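 Phosphorylation by fully phosphorylated mouse ERK2 ran 40-45 min, then quenched with IMAP beads (1:1000) in binding buffer; fluorescence polarization read after 30 min binding equilibration.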", "units": {"IC50": "nM"}}
{"smiles": "COc1cccc(F)c1CN1C[C@H](NC(=O)c2ccc3[nH]nc(-c4ccnc(C)c4)c3c2)CC[C@H]1C(=O)NCC1CC1", "note": "[N-[(3R,6S)-6-[(cyclopropylmethyl)carbamoyl]-1-(2-fluoro-6-methoxybenzyl)piperidin-3-yl]-3-(2-methylpyridin-4-yl)-1H-indazole-5-carboxamide]", "IC50": 4.9}
{"smiles": "COc1cccc(F)c1CN1C[C@H](NC(=O)c2ccc3[nH]nc(-c4ccnc(C)c4)c3c2)CC[C@H]1C(=O)N(C)C1CC1", "note": "[N-[(3R,6S)-6-[cyclopropyl(methyl)carbamoyl]-1-(2-fluoro-6-methoxybenzyl)piperidin-3-yl]-3-(2-methylpyridin-4-yl)-1H-indazole-5-carboxamide]", "IC50": 2.5}
{"smiles": "COc1cccc(F)c1CN1C[C@H](NC(=O)c2ccc3[nH]nc(-c4ccnc(C)c4)c3c2)CC[C@H]1C(=O)NC1(C)CC1", "note": "[N-{(3R,6S)-1-(2-fluoro-6-methoxybenzyl)-6-[(1-methylcyclopropyl)carbamoyl]piperidin-3-yl}-3-(2-methylpyridin-4-yl)-1H-indazole-5-carboxamide]", "IC50": 4.7}
{"smiles": "COc1ccc(NC(=O)[C@@H]2CC[C@@H](NC(=O)c3ccc4[nH]nc(-c5ccnc(C)c5)c4c3)CN2Cc2c(F)cccc2OC)cc1F", "note": "[N-{(3R,6S)-1-(2-fluoro-6-methoxybenzyl)-6-[(3-fluoro-4-methoxyphenyl)carbamoyl]piperidin-3-yl}-3-(2-methylpyridin-4-yl)-1H-indazole-5-carboxamide]", "IC50": 16.7}
{"smiles": "COc1cccc(F)c1CN1C[C@H](NC(=O)c2ccc3[nH]nc(-c4ccnc(C)c4)c3c2)CC[C@H]1C(=O)Nc1cccc(F)c1", "note": "[N-{(3R,6S)-1-(2-fluoro-6-methoxybenzyl)-6-[(3-fluorophenyl)carbamoyl]piperidin-3-yl}-3-(2-methylpyridin-4-yl)-1H-indazole-5-carboxamide]", "IC50": 15.2}
{"smiles": "COc1cccc(F)c1CN1C[C@H](NC(=O)c2ccc3[nH]nc(-c4ccnc(C)c4)c3c2)CC[C@H]1C(=O)N1CC(C)(O)C1", "note": "[N-{(3R,6S)-1-(2-fluoro-6-methoxybenzyl)-6-[(3-hydroxy-3-methylazetidin-1-yl)carbonyl]piperidin-3-yl}-3-(2-methylpyridin-4-yl)-1H-indazole-5-carboxamide]", "IC50": 1.1}
{"smiles": "COc1cccc(F)c1CN1C[C@H](NC(=O)c2ccc3[nH]nc(-c4ccnc(C)c4)c3c2)CC[C@H]1C(=O)Nc1ccc(F)cc1", "note": "[N-{(3R,6S)-1-(2-fluoro-6-methoxybenzyl)-6-[(4-fluorophenyl)carbamoyl]piperidin-3-yl}-3-(2-methylpyridin-4-yl)-1H-indazole-5-carboxamide]", "IC50": 23.4}
{"smiles": "COc1ccc(N(C)C(=O)[C@@H]2CC[C@@H](NC(=O)c3ccc4[nH]nc(-c5ccnc(C)c5)c4c3)CN2Cc2c(F)cccc2OC)cc1", "note": "[N-{(3R,6S)-1-(2-fluoro-6-methoxybenzyl)-6-[(4-methoxyphenyl)(methyl)carbamoyl]piperidin-3-yl}-3-(2-methylpyridin-4-yl)-1H-indazole-5-carboxamide]", "IC50": 5.8}
{"smiles": "COc1ccc(NC(=O)[C@@H]2CC[C@@H](NC(=O)c3ccc4[nH]nc(-c5ccnc(C)c5)c4c3)CN2Cc2c(F)cccc2OC)cc1", "note": "[N-{(3R,6S)-1-(2-fluoro-6-methoxybenzyl)-6-[(4-methoxyphenyl)carbamoyl]piperidin-3-yl}-3-(2-methylpyridin-4-yl)-1H-indazole-5-carboxamide]", "IC50": 11.6}
{"smiles": "COc1ccnc(NC(=O)[C@@H]2CC[C@@H](NC(=O)c3ccc4[nH]nc(-c5ccnc(C)c5)c4c3)CN2Cc2c(F)cccc2OC)c1", "note": "[N-{(3R,6S)-1-(2-fluoro-6-methoxybenzyl)-6-[(4-methoxypyridin-2-yl)carbamoyl]piperidin-3-yl}-3-(2-methylpyridin-4-yl)-1H-indazole-5-carboxamide]", "IC50": 50.2}
{"target": "fully phosphorylated, mouse aERK2 enzyme (Mus musculus (Mouse), UniProt P63085)", "assay": "Active ERK2 (aERK) IMAP-FP assay, condition 2", "type": "biochemical", "conditions": "active ERK2; read-out: aErk2 Ic50", "method_in_brief": "as §1", "units": {"IC50": "nM"}}
{"smiles": "CCN(C)C(=O)[C@@H]1CC[C@@H](NC(=O)c2ccc3[nH]nc(-c4ccnc(C)c4)c3c2)CN1Cc1c(F)cccc1OC", "note": "[N-[(3R,6S)-6-[ethyl(methyl)carbamoyl]-1-(2-fluoro-6-methoxybenzyl)piperidin-3-yl]-3-(2-methylpyridin-4-yl)-1H-indazole-5-carboxamide]", "IC50": 21.8}
{"smiles": "COc1cccc(F)c1CN1C[C@H](NC(=O)c2ccc3[nH]nc(-c4ccc5nc(C)sc5c4)c3c2)CC[C@H]1C(N)=O", "note": "[N-[(3R,6S)-6-carbamoyl-1-(2-fluoro-6-methoxybenzyl)piperidin-3-yl]-3-(2-methyl-1,3-benzothiazaol-6-yl)-1H-indazole-5-carboxamide]", "IC50": 3.6}
{"smiles": "COc1cccc(F)c1CN1C[C@H](NC(=O)c2ccc3[nH]nc(-c4ccnc(C)c4)c3c2)CC[C@H]1C(N)=O", "note": "[N-[(3R,6S)-6-carbamoyl-1-(2-fluoro-6-methoxybenzyl)piperidin-3-yl]-3-(2-methylpyridin-4-yl)-1H-indazole-5-carboxamide]", "IC50": 1}
{"smiles": "COc1cccc(F)c1CN1C[C@H](NC(=O)c2ccc3[nH]nc(-c4ccncc4)c3c2)CC[C@H]1C(N)=O", "note": "[N-[(3R,6S)-6-carbamoyl-1-(2-fluoro-6-methoxybenzyl)piperidin-3-yl]-3-pyridin-4-yl-1H-indazole-5-carboxamide]", "IC50": 1.7}
{"smiles": "COc1cccc(F)c1CN1C[C@H](NC(=O)c2ccc3[nH]nc(-c4ccnc(C)c4)c3c2)CC[C@H]1C(=O)NCCOCc1ccccc1", "note": "[N-[(3R,6S)-6-{[2-(benzyloxy)ethyl]-carbamoyl}-1-(2-fluoro-6-methoxybenzyl)-piperidin-3-yl]-3-(2-methylpyridin-4-yl)-1H-indazole-5-carboxamide]", "IC50": 121}
{"smiles": "CCNC(=O)N1CCN(C(=O)[C@@H]2CC[C@@H](NC(=O)c3ccc4[nH]nc(-c5ccnc(C)c5)c4c3)CN2Cc2c(F)cccc2OC)CC1", "note": "[N-[(3R,6S)-6-{[4-(ethylcarbamoyl)piperazin-1-yl]carbonyl}-1-(2-fluoro-6-methoxy-benzyl)piperidin-3-yl]-3-(2-methylpyridin-4-yl)-1H-indazole-5-carboxamide]", "IC50": 16.4}
{"smiles": "COc1cccc(F)c1CN1C[C@H](NC(=O)c2ccc3[nH]nc(-c4ccnc(C)c4)c3c2)CC[C@H]1C(=O)NC(C)C", "note": "[N-{(3R,6S)-1-(2-fluoro-6-methoxybenzyl)-6-[(1-methylethyl)carbamoyl]piperidin-3-yl}-3-(2-methylpyridin-4-yl)-1H-indazole-5-carboxamide]", "IC50": 46.5}
{"smiles": "COc1cccc(F)c1CN1C[C@H](NC(=O)c2ccc3[nH]nc(-c4ccnc(C)c4)c3c2)CC[C@H]1C(=O)NCC(F)(F)F", "note": "[N-{(3R,6S)-1-(2-fluoro-6-methoxybenzyl)-6-[(2,2,2-trifluoroethyl)carbamoyl]piperidin-3-yl}-3-(2-methylpyridin-4-yl)-1H-indazole-5-carboxamide]", "IC50": 46.5}
{"smiles": "COc1cccc(F)c1CN1C[C@H](NC(=O)c2ccc3[nH]nc(-c4ccnc(C)c4)c3c2)CC[C@H]1C(=O)NCCO", "note": "[N-{(3R,6S)-1-(2-fluoro-6-methoxybenzyl)-6-[(2-hydroxyethyl)carbamoyl]piperidin-3-yl}-3-(2-methylpyridin-4-yl)-1H-indazole-5-carboxamide]", "IC50": 5.6}
{"smiles": "COCCNC(=O)[C@@H]1CC[C@@H](NC(=O)c2ccc3[nH]nc(-c4ccnc(C)c4)c3c2)CN1Cc1c(F)cccc1OC", "note": "[N-{(3R,6S)-1-(2-fluoro-6-methoxybenzyl)-6-[(2-methoxyethyl)carbamoyl]piperidin-3-yl}-3-(2-methylpyridin-4-yl)-1H-indazole-5-carboxamide]", "IC50": 56.7}
